Patent publication US12697313B2, “Methods of treating anemia using formoterol or a pharmaceutically acceptable salt thereof” (Dana-Farber Cancer Institute, Inc., priority 2022, dated 2026)
“Also recorded” adds a separate entry of the source.

What was measured:
primary human HSPCs = assay: Mitochondrial functions in primary human HSPCs (mtDNA genes, TMRE, MitoTracker); format: cell-based
Procedure: Given the involvement of β2-AR in erythropoiesis, it was hypothesized that administration of long-acting selective β2-AR agonist FF might promote erythroid differentiation. To address this, primary human HSPCs were treated with varying doses of FF (Selleckchem). […] To ascertain if FF administration plays a role further upstream in the erythroid differentiation pathway, methylcellulose colony-formation assays were performed.
TMRE (T669, Invitrogen) and Mitotracker® (M22426, Life Technologies) and MitoSox® (M36008, Life Technologies) staining were performed as per the manufacturer's instructions.

[1] = test system: PHZ-induced lethal hemolytic anemia mice; assay: PHZ-mediated lethal hemolytic anemia, FF i.p.; format: in vivo; conditions: for body weights: 0.1/0.3 mg/kg
Procedure: To this end, 10-12 week old male C57BL/6J mice were first treated with a single lethal dose of 150 mg/kg PHZ followed by daily i.p. injections of either vehicle or 0.1/0.3 mg/kg FF. […] All control mice (n=5) were moribund and died by 3 days of lethal PHZ dose, whereas 3-4 mice in 0.1/0.3 mg/kg FF treatment groups are still surviving post 2 weeks of lethal dose (FIG. 42A). […] FF injections were stopped after 7 days of lethal PHZ treatment and it was observed that the body weights of mice were held steady (FIG. 42B). The body weights and survival of these mice are being monitored daily. This unexpected finding prompted us to repeat this lethal hemolytic anemia model in the female mice. […] The FF treatment lasted for 7 days after lethal PHZ dose and the body weights and survival of these mice are being monitored daily.

[2] = test system: phenylhydrazine (PHZ)-treated mice; assay: FF oral gavage in PHZ-treated mice at sub-lethal dose of 60 mg/kg; format: in vivo
[3] = test system: erythroid progenitors / bone marrow cells of wild-type mice; assay: Gene expression (bulk RNA sequencing, qPCR) in FF-treated naive wild-type mice; format: in vivo
Description: Data represented as mean±SEM. All comparisons are done with respect to Vehicle (DMSO-treated).
This example describes the effects of formoterol fumarate treatment on expression of genes that have been linked to erythropoiesis including Klf9 (Ren et al., (2018) Yi Chuan. 40(11):998-1006 and Zhang et al., (2017) Blood 130(20):2161-2170), Klf13, Klf11 (Emery (2007) J. Cell. Biochem 100(4):1045-55), Hif1a (Wellmann, et al., (2004) J. Cell Sci. 117:175-94; Feng et al., (2022) Nature 610(7933):783-790; and Chen et al., (2019) N Engl J Med 381:1011-1022), Epas1 (Scortegagna et al. (2003) Blood 102:1634-40), Ddit4 (Yoshikawa (2023) Cancer Biomark. 37(4): 217-225), Cirbp, and Rora (Kim et al. (2008) Arterioscler Throm Vasc Biol 28(10):1796-802 and Chauvet et al., (2004) Biochem. J. 384:79-85). Differential gene expression in naïve wild-type mice was analyzed by bulk RNA sequencing according to an example workflow as depicted in FIG. 86.

[4] = test system: ovariectomized rat models; conditions: ovariectomized rat models (Kellenberger et al. 1998); cited from earlier work
[5] = female, PHZ 120 mg/kg, FF 0.1 mg/kg, n=5
[6] = female, PHZ 120 mg/kg, FF 0.3 mg/kg, n=5
[7] = male, PHZ 150 mg/kg, FF 0.1 mg/kg, n=5
[8] = male, PHZ 150 mg/kg, FF 0.3 mg/kg, n=5
[9] = 14 days of daily o.g., PHZ 60 mg/kg, FIG. 59

In the case of `COc1ccc(C[C@@H](C)NC[C@H](O)c2ccc(O)c(NC=O)c2)cc1.O=C(O)/C=C/C(=O)O` [FF, (E)-but-2-enedioic acid;N-[2-hydroxy-5-[(1R)-1-hydroxy-2-[[(2R)-1-(4-methoxyphenyl)propan-2-yl]amino]ethyl]phenyl]formamide], the “mitochondrial membrane potential (TMRE staining)” value (primary human HSPCs; FIG. 5B) is reported as “elevated mitochondrial mass and membrane potential; also recorded: enhances mitochondrial membrane potential”, the “mitochondrial mass (MitoTracker staining)” value (primary human HSPCs; FIG. 5C) is reported as “elevated mitochondrial mass and membrane potential; also recorded: increases mitochondrial mass” and the “expression of mitochondrial DNA encoded genes MT-ND1, MT-CytB, MT-CO1, MT-ATP6” value (primary human HSPCs; vs DMSO, FIG. 5A) is reported as “enhanced expression of mtDNA encoded genes required for OXPHOS; also recorded: enhances expression of mitochondrial DNA encoded genes”. The “survival (Kaplan-Meier)” value ([1]; female mice, PHZ 120 mg/kg, FF 0.1/0.3 mg/kg, FIG. 42C) was “provided prominent survival benefits”, the body weights ([1]; female, PHZ 120 mg/kg, FIG. 42D) was “similarly revived body weights; also recorded: steadily increases body weights of female mice” and the “mice died on day 2” value [1, 5] was 1 mouse. For the same compound, the “mice still surviving post lethal PHZ dose” value [1, 5] was 4 mice, the “mice died on day 2” value [1, 6] was 2 mice and the “mice still surviving post lethal PHZ dose” value [1, 6] was 3 mice. For the same compound, the “survival (Kaplan-Meier)” value ([1]; male mice, PHZ 150 mg/kg, FF 0.1/0.3 mg/kg daily i.p., FIG. 42A) was “produced striking survival benefits”, the “mice still surviving post 2 weeks of lethal dose” value ([1]; male, PHZ 150 mg/kg, 0.1/0.3 mg/kg FF groups, n=5) was 3-4 mice and the body weights ([1]; male, PHZ 150 mg/kg, FIG. 42B) was “produced remarkable revival in body weights; also recorded: steadily increases body weights of male mice”. For the same compound, the “mice died on day 2” value [1, 7] was 2 mice, the “mice still surviving post lethal PHZ dose” value [1, 7] was 3 mice and the “mice died on day 2” value [1, 8] was 1 mouse. For the same compound, the “mice still surviving post lethal PHZ dose” value [1, 8] was 4 mice, the “granulocyte monocyte progenitors (GMP)” value ([2]; 14 days of daily o.g., FIG. 60) was “does not affect granulocyte monocyte progenitors (GMP)” and the “megakaryocytic progenitors (MkP)” value ([2]; 14 days of daily o.g., FIG. 60) was “increases megakaryocytic progenitors (MkP)”. The “mitochondrial membrane potential (TMRE staining) in BMPs” value [2, 9] was “increases viability and mitochondrial membrane potential”, the “viability of BMPs” value [2, 9] was “increases viability and mitochondrial membrane potential” and the body weights ([2]; o.g., PHZ 60 mg/kg, FIG. 56) was “does not affect body weights”. For the same compound, the “RBC parameters (HCT % and Hb) in peripheral blood” value ([2]; o.g., PHZ 60 mg/kg, FIG. 57) was “increases RBC parameters”, the “WBC and platelets in peripheral blood” value ([2]; o.g., PHZ 60 mg/kg, FIG. 58) was “does not affect WBC and platelets” and the “HIF-1α expression in bone marrow cells” value ([3]; 0.5mg/kg ip 3× weekly, qPCR, FIG. 88A) was “enhances HIF-1α expression; also recorded: both significantly increased”. For the same compound, the “VEGFA expression in bone marrow cells” value ([3]; 0.5mg/kg ip 3× weekly, qPCR, FIG. 88B) was “enhances; also recorded: both significantly increased”, the “expression of Klf9, Klf13, Klf11, Hif1a, Epas1, Ddit4, Cirbp, Rora in erythroid progenitors from bone marrow” value ([3]; bulk RNA sequencing, FF-treated vs vehicle-treated, FIG. 87) was “increased in FF-treated mice” and the effects on bone [4] was “anabolic effects on bone”.
